Our source for the IC50 values is publication PMC3794980, “Identification of Conserved and HLA Promiscuous DENV3 T-Cell Epitopes” (PLoS Neglected Tropical Diseases, 2013).

Targets include DRB3*0101 (Homo sapiens, UniProt P01903+P79483); DRB4*0101 (Homo sapiens, UniProt P01903+P13762, G164S); DRB5*0101 (Homo sapiens, UniProt P01903+Q30154).
What all share (assay): biochemical
What all share (format): binding

In general, IC50 refers to the point on the concentration scale where inhibition reaches its midpoint. A higher IC50 goes with weaker potency.

Where no end group is shown, it is not given here.

Turning to `CC(C)C[C@H](NC(=O)[C@H](CCCCN)NC(=O)[C@@H](NC(=O)[C@H](CCCCN)NC(=O)[C@H](CCC(N)=O)NC(=O)[C@H](Cc1ccc(O)cc1)NC(=O)[C@H](CCC(=O)O)NC(=O)[C@@H](NC(=O)[C@H](CC(=O)O)NC(=O)[C@H](Cc1ccccc1)NC(=O)[C@@H](NC(=O)[C@@H](N)CCCCN)[C@@H](C)O)[C@@H](C)O)[C@@H](C)O)C(=O)N[C@@H](CC(N)=O)C(=O)N[C@@H](CC(=O)O)C(=O)N[C@@H](Cc1c[nH]c2ccccc12)C(=O)O` [NS3 389-403], the IC50 turned out to be 4.53 µM on DRB3*0101, 9.91 µM against DRB4*0101 and 2.33 µM on DRB5*0101.

For `CSCC[C@H](NC(=O)[C@H](C)NC(=O)[C@H](CCSC)NC(=O)[C@H](CCC(N)=O)NC(=O)[C@@H](NC(=O)[C@@H](NC(=O)[C@@H](N)CCSC)C(C)C)[C@@H](C)O)C(=O)N[C@H](C(=O)N[C@@H](CC(=O)O)C(=O)N[C@H](C(=O)N[C@H](C(=O)N1CCC[C@H]1C(=O)N[C@@H](Cc1ccccc1)C(=O)NCC(=O)N[C@@H](CCC(N)=O)C(=O)N[C@@H](CCC(N)=O)C(=O)N[C@@H](CCCNC(=N)N)C(=O)O)[C@@H](C)O)[C@@H](C)O)[C@@H](C)O` [NS5 336-352], the IC50 against DRB4*0101 was 0.747 µM; against DRB5*0101, 10.4 µM.

`CC[C@H](C)[C@H](NC(=O)[C@H](CCCNC(=N)N)NC(=O)[C@H](CCCCN)NC(=O)[C@@H](NC(=O)[C@H](CCCNC(=N)N)NC(=O)[C@H](CCC(=O)O)NC(=O)CNC(=O)[C@@H](NC(=O)[C@@H](NC(=O)[C@H](CC(=O)O)NC(=O)[C@H](CCSC)NC(=O)[C@H](CC(N)=O)NC(=O)[C@@H]1CCCN1C(=O)[C@@H](NC(=O)[C@H](CCC(=O)O)NC(=O)[C@@H]1CCCN1)[C@@H](C)O)C(C)C)[C@@H](C)CC)[C@@H](C)CC)C(=O)N[C@@H](CCCCN)C(=O)O` [NS5 268-284]: the IC50 against DRB3*0101 amounted to 1.39 µM; against DRB4*0101, 0.869 µM; at DRB5*0101, 2.83 µM.

Take `CC[C@H](C)[C@H](NC(=O)[C@H](C)NC(=O)[C@@H](N)CCSC)C(=O)N[C@@H](CO)C(=O)NCC(=O)N[C@@H](CC(=O)O)C(=O)N[C@@H](CC(=O)O)C(=O)N[C@@H](CS)C(=O)N[C@H](C(=O)N[C@H](C(=O)N[C@@H](CCCCN)C(=O)N1CCC[C@H]1C(=O)N[C@H](C(=O)N[C@@H](CC(=O)O)C(=O)N[C@@H](CC(=O)O)C(=O)N[C@@H](CCCNC(=N)N)C(=O)N[C@@H](Cc1ccccc1)C(=O)O)[C@@H](C)CC)C(C)C)C(C)C` [NS5 658-674]: the figures for the 50% inhibitory concentration (IC50) against DRB3*0101, against DRB4*0101 and against DRB5*0101 were 1.93 µM, 19.4 µM and 1.54 µM, respectively.

In the case of TNTFVLKKEVSETQH [Envelope 301-315], the IC50 against DRB3*0101 was 2.83 µM; against DRB4*0101, 2.19 µM; at DRB5*0101, 4.89 µM.

Take `CSCC[C@H](NC(=O)[C@H](Cc1ccc(O)cc1)NC(=O)[C@H](CCCNC(=N)N)NC(=O)[C@H](CC(C)C)NC(=O)[C@@H]1CCCN1C(=O)[C@@H]1CCCN1C(=O)[C@H](CC(C)C)NC(=O)[C@@H](NC(=O)[C@H](CS)NC(=O)[C@H](CO)NC(=O)[C@H](CCCNC(=N)N)NC(=O)[C@@H](N)CS)[C@@H](C)O)C(=O)NCC(=O)N[C@@H](CCC(=O)O)C(=O)N[C@@H](CC(=O)O)C(=O)O` [NS1 313-327]: the IC50 against DRB4*0101 came to 0.503 µM; at DRB5*0101, 2.27 µM.

Turning to `CC[C@H](C)[C@H](NC(=O)[C@H](Cc1ccc(O)cc1)NC(=O)CNC(=O)[C@H](CC(C)C)NC(=O)[C@H](CCCCN)NC(=O)[C@H](Cc1c[nH]cn1)NC(=O)[C@@H](N)CC(C)C)C(=O)N[C@@H](CC(C)C)C(=O)N[C@@H](CCCNC(=N)N)C(=O)N[C@@H](CC(=O)O)C(=O)N[C@H](C(=O)N[C@@H](CO)C(=O)N[C@@H](CCCCN)C(=O)N[C@H](C(=O)N1CCC[C@H]1C(=O)NCC(=O)NCC(=O)O)[C@@H](C)CC)[C@@H](C)CC` [NS5 511-527], the IC50 is 0.057 µM against DRB4*0101 and 0.611 µM against DRB5*0101.

Turning to `CC[C@H](C)[C@H](NC(=O)[C@H](CCC(=O)O)NC(=O)CNC(=O)[C@H](CCCNC(=N)N)NC(=O)[C@H](CCCCN)NC(=O)[C@H](CC(C)C)NC(=O)CNC(=O)[C@H](CCC(=O)O)NC(=O)[C@H](CCCCN)NC(=O)[C@H](C)NC(=O)[C@H](CCC(=O)O)NC(=O)[C@@H](N)[C@@H](C)O)C(=O)N[C@H](C(=O)N[C@@H](Cc1c[nH]cn1)C(=O)N[C@@H](Cc1c[nH]cn1)C(=O)N[C@@H](C)C(=O)N[C@H](C(=O)O)C(C)C)[C@@H](C)O` [NS5 39-55], the concentration for half-maximal inhibition (IC50) against DRB3*0101 turned out to be 0.749 µM; against DRB4*0101, 0.563 µM.

In the case of `CC[C@H](C)[C@H](NC(=O)[C@@H](NC(=O)[C@H](CC(C)C)NC(=O)[C@H](CC(N)=O)NC(=O)[C@H](CCCNC(=N)N)NC(=O)[C@H](CCCCN)NC(=O)[C@H](CCCCN)NC(=O)[C@H](Cc1ccccc1)NC(=O)[C@H](CCSC)NC(=O)[C@H](CCC(=O)O)NC(=O)[C@@H](N)CCC(=O)O)[C@@H](C)O)C(=O)N[C@@H](CCSC)C(=O)N[C@@H](CC(=O)O)C(=O)N[C@@H](CC(C)C)C(=O)N[C@@H](Cc1c[nH]cn1)C(=O)O` [NS3 181-195], the IC50 is 1.26 µM on DRB3*0101 and 0.068 µM against DRB4*0101.

As for `CC[C@H](C)[C@H](NC(=O)[C@@H](N)CCSC)C(=O)N[C@H](C(=O)N1CCC[C@H]1C(=O)N[C@@H](CCCCN)C(=O)N[C@@H](CO)C(=O)N[C@@H](CC(C)C)C(=O)N[C@@H](C)C(=O)NCC(=O)N1CCC[C@H]1C(=O)N[C@H](C(=O)N[C@@H](CO)C(=O)N[C@@H](CCC(N)=O)C(=O)N[C@@H](Cc1c[nH]cn1)C(=O)N[C@@H](CC(N)=O)C(=O)O)[C@@H](C)CC)[C@@H](C)CC` [NS1 241-255], the IC50 on DRB4*0101 came to 1.09 µM; at DRB5*0101 it was 3.2 µM.

In the case of `CC(C)C[C@H](NC(=O)[C@H](CCC(=O)O)NC(=O)[C@H](CC(C)C)NC(=O)[C@H](CCCCN)NC(=O)CNC(=O)[C@H](CC(C)C)NC(=O)[C@H](Cc1c[nH]cn1)NC(=O)[C@H](Cc1c[nH]c2ccccc12)NC(=O)[C@@H]1CCCN1C(=O)CNC(=O)[C@H](C)NC(=O)[C@@H](NC(=O)[C@H](CCC(N)=O)NC(=O)[C@@H](NC(=O)[C@@H](N)Cc1c[nH]cn1)[C@@H](C)O)[C@@H](C)O)C(=O)O` [NS1 261-275], the IC50 is 1.33 µM against DRB3*0101 and 0.666 µM on DRB4*0101.

For `CC[C@H](C)[C@H](NC(=O)[C@H](CC(C)C)NC(=O)[C@H](CCC(=O)O)NC(=O)[C@@H](N)Cc1c[nH]cn1)C(=O)N[C@@H](CCSC)C(=O)N[C@@H](CCCCN)C(=O)N[C@@H](CC(=O)O)C(=O)NCC(=O)N[C@@H](CCCNC(=N)N)C(=O)N[C@@H](CCCCN)C(=O)N[C@@H](CC(C)C)C(=O)N[C@H](C(=O)N[C@H](C(=O)N1CCC[C@H]1C(=O)N[C@@H](CS)C(=O)N[C@@H](CCCNC(=N)N)C(=O)O)C(C)C)C(C)C` [NS5 714-729], the IC50 against DRB4*0101 came out at 4.02 µM; on DRB5*0101, 0.245 µM.

Regarding `CC[C@H](C)[C@H](NC(=O)[C@@H]1CCCN1C(=O)[C@H](CCC(=O)O)NC(=O)[C@H](CC(C)C)NC(=O)[C@@H](N)CS)C(=O)N[C@@H](CCC(=O)O)C(=O)NCC(=O)N[C@@H](CCCCN)C(=O)N[C@H](C(=O)N[C@H](C(=O)N[C@@H](CCC(N)=O)C(=O)N[C@@H](Cc1ccc(O)cc1)C(=O)N[C@@H](CCC(=O)O)C(=O)N[C@@H](CC(N)=O)C(=O)N[C@@H](CC(C)C)C(=O)O)C(C)C)C(C)C` [Envelope 121-135], the figures for the 50% inhibitory concentration (IC50) against DRB4*0101 and at DRB5*0101 were 1.1 µM and 13.3 µM, respectively.

Consider `CC[C@H](C)[C@H](NC(=O)[C@H](CC(C)C)NC(=O)[C@H](CO)NC(=O)[C@H](C)NC(=O)[C@H](CCCCN)NC(=O)[C@H](CCC(=O)O)NC(=O)[C@H](CC(C)C)NC(=O)[C@H](CCCCN)NC(=O)[C@H](Cc1c[nH]c2ccccc12)NC(=O)[C@@H](N)CO)C(=O)N[C@@H](CCC(=O)O)C(=O)N[C@H](C(=O)N[C@@H](CCCCN)C(=O)N[C@H](C(=O)N[C@@H](CS)C(=O)O)[C@@H](C)O)C(C)C` [NS1 209-223], for which the half-inhibitory concentration (IC50) stood at 5.02 µM against DRB4*0101 and 1.18 µM against DRB5*0101.

Regarding `CC[C@H](C)[C@H](NC(=O)[C@H](CC(C)C)NC(=O)[C@H](CC(=O)O)NC(=O)[C@H](CCCCN)NC(=O)[C@@H](N)CCCCN)C(=O)N[C@@H](CO)C(=O)N[C@@H](Cc1ccc(O)cc1)C(=O)NCC(=O)NCC(=O)NCC(=O)N[C@@H](Cc1c[nH]c2ccccc12)C(=O)N[C@@H](CCCNC(=N)N)C(=O)N[C@@H](CC(C)C)C(=O)N[C@@H](CO)C(=O)N[C@@H](C)C(=O)O` [NS3 73-87], the IC50 is 3.47 µM against DRB4*0101 and 0.071 µM on DRB5*0101.

As for `CC[C@H](C)[C@H](NC(=O)[C@H](CO)NC(=O)[C@H](C)N)C(=O)N[C@@H](C)C(=O)N[C@@H](C)C(=O)N[C@@H](CCCNC(=N)N)C(=O)NCC(=O)N[C@@H](Cc1ccc(O)cc1)C(=O)N[C@H](C(=O)N[C@@H](CO)C(=O)N[C@H](C(=O)N[C@@H](CCCNC(=N)N)C(=O)N[C@H](C(=O)NCC(=O)N[C@@H](CCSC)C(=O)O)C(C)C)[C@@H](C)O)[C@@H](C)CC` [NS3 293-307], the half-inhibitory concentration (IC50) was 18.9 µM on DRB3*0101 and 2.67 µM against DRB4*0101.

Take `CC[C@H](C)[C@H](NC(=O)[C@H](CC(=O)O)NC(=O)[C@H](CCSC)NC(=O)[C@@H](NC(=O)[C@@H](NC(=O)CNC(=O)[C@H](CCCCN)NC(=O)[C@@H]1CCCN1C(=O)[C@@H](NC(=O)[C@@H]1CCCN1)[C@@H](C)O)[C@@H](C)O)C(C)C)C(=O)N[C@H](C(=O)N[C@@H](CO)C(=O)N[C@@H](CCCNC(=N)N)C(=O)N[C@@H](CCCCN)C(=O)N[C@@H](CC(=O)O)C(=O)N[C@@H](CCC(N)=O)C(=O)N[C@@H](CCCNC(=N)N)C(=O)O)[C@@H](C)CC` [NS5 582-598]: the IC50 against DRB3*0101 turned out to be 7.22 µM; on DRB4*0101 it was 1.54 µM.

`CC[C@H](C)[C@H](NC(=O)[C@H](CCSC)NC(=O)[C@H](CO)NC(=O)[C@H](CO)NC(=O)[C@H](C)NC(=O)[C@H](CO)NC(=O)CNC(=O)[C@@H](NC(=O)[C@H](C)NC(=O)[C@H](CCCCN)NC(=O)[C@@H](NC(=O)[C@H](CCC(=O)O)NC(=O)[C@H](Cc1ccc(O)cc1)NC(=O)[C@H](CO)NC(=O)CN)C(C)C)[C@@H](C)O)C(=O)N[C@@H](CC(N)=O)C(=O)NCC(=O)O` [NS5 306-322]: the values for the IC50 against DRB3*0101 and on DRB4*0101 were 2.29 µM and 5.55 µM, respectively.
